Results reported in US5436260A, “Angiotensin II receptor antagonists” (Warner-Lambert Company, priority 1994, dated 1995).
Counter-ions that a name gives are not always drawn.

Experiments:
renal hypertensive rats = experiment: blood pressure lowering in renal hypertensive rats (2-kidney, 1-clip Goldblatt model); format: in vivo; settings: renal hypertensive rat
Procedure: Finally, the compounds of Formula I were tested in vivo for blood pressure lowering effects in renal hypertensive rats (2-kidney, 1-clip Goldblatt model) according to the method described by S. Sen, et al, in Hypertension 1979;1:427-34 and in Clin. Soc. 1979;57:53-62.
Illustrative of the in vivo antihypertensive activity for compounds of Formula I or Ia is the data for Example 1a. This compound lowers blood pressure by ≥50 mm Hg and is efficacious for more than 24 hours with a single oral dose of 100 mg/kg in the renal hypertensive rat. Furthermore Example 73 lowers blood pressure by ≥30 mm Hg and is efficacious for more than 24 hours with a single oral dose of 30 mg/kg in the renal hypertensive rat.

AT1 receptor = target: T1, AT1 receptor (Rattus norvegicus, UniProt P25095); experiment: [^3 H]angiotensin II binding to rat liver membranes (AT1 test); settings: inhibition of [^3 H]angiotensin II binding
T1 construct: rat liver membranes; from tissue; host or cells: rat liver membranes
T1 sequence (P25095 1-359): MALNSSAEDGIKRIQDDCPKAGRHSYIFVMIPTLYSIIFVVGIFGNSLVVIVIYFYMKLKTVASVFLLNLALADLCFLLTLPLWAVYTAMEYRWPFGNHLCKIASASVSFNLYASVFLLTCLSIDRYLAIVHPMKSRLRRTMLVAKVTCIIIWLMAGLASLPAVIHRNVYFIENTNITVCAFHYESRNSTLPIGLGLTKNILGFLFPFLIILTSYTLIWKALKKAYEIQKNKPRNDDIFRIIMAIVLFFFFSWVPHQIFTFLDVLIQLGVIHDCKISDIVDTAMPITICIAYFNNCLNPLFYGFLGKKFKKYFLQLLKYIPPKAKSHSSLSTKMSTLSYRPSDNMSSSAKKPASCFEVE
How it was run: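 Inhibition of [^3 H]angiotensin II binding to rat liver membranes, run by the Dudley et al. 1990 method.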

Row | IC50 (AT1 receptor) [nM] | Compound | also measured
1 | 1.3 | CCCCc1ncc(/C=C2/C(=O)N(CCCC)C(=O)N2CCCC)n1Cc1ccc(C(=O)O)cc1 [Example 73, Z-4-[[2-butyl-5-[(1,3-dibutyl-2,5-dioxo-4-imidazolidinylidene)methyl]-1H-imidazol-1-yl]methyl]benzoic acid] | efficacious for (duration) (renal hypertensive rats; single oral dose of 30 mg/kg): more than 24 hours; lowers blood pressure by (renal hypertensive rats; single oral dose of 30 mg/kg): ≥ 30 mm Hg
2 | 9.4 | CCCCc1ncc(/C=C2\C(=O)NC(=O)N2CCC(C)C)n1Cc1ccc(C(=O)O)cc1 [Example 2a] | –
3 | 2.97 | CCCCc1ncc(/C=C2\C(=O)NC(=O)N2Cc2cccs2)n1Cc1ccc(C(=O)O)cc1 [Example 6a] | –
4 | 49.5 | CCCCc1ncc(/C=C2/C(=O)NC(=O)N2CCCCO)n1Cc1ccc(C(=O)OC)cc1 [Example 17b, (Z)-4-[[2-Butyl-5-[[2,5-dioxo-3-(4-hydroxybutyl)-4-imidazolidinylidene]methyl]-1-H-imidazole-1-yl]methyl]benzoic acid, methyl ester] | –
5 | > 1000 | CCCCCCN1C(=O)N/C(=C\c2cnc(CCCC)n2Cc2ccc(C(=O)OC)cc2)C1=O [Example 47, Methyl ZX-4-[[2-butyl-5-[(1-hexyl-2,5-dioxo-4-imidazolidinylidene)methyl]-1H-imidazol-1-yl]m,ethyl]benzoate] | –
6 | 178 | CCCCc1ncc(/C=C2\NC(=O)N(CCCC)C2=O)n1Cc1ccc(C(=O)OC)cc1 [Example 32a, Methyl Z-4-[[2-butyl-5-[(1-butyl-2,5-dioxo-4-imidazolidinylidene)methyl]-1H-imidazol-1-yl]methyl]benzoate monohydrochloride] | –
7 | 10 | CCCCc1ncc(/C=C2/C(=O)NC(=O)N2CCCC)n1Cc1ccc(C(=O)OC)cc1Cl [Example 87a, Methyl Z-4-[[2-butyl-5-[(3-butyl-2,5-dioxo-4-imidazolidinylidene)methyl]-1H-imidazol-1-yl]methyl]-3-chlorobenzoate] | –
8 | 10.3 | CCCCc1ncc(/C=C2/C(=O)NC(=O)N2CCCC)n1Cc1ccc(C(=O)OC)cc1 [Example 15b, (Z)-4-[[2-Butyl-5-[(3-butyl-2,5-dioxo-4-imidazolidinylidene)methyl]-1H-imidazole-1-yl]methyl]benzoic acid, methyl ester] | –

More lines, now with the values behind:

Row | Compound | IC50 (AT1 receptor) [nM] | also measured
9 | CCCCc1ncc(/C=C2\C(=O)NC(=O)N2CCCC)n1Cc1ccc(C(=O)O)cc1 [Example 1a, (E)-4-[[2-Butyl-5-[(3-butyl-2,5-dioxo-4-imidazolidinylidene)methyl]-1H-imidazol-1-yl]methyl]benzoic acid] | – | lowers blood pressure by (renal hypertensive rats; single oral dose of 100 mg/kg): ≥ 50 mm Hg
10 | CCCCc1ncc(CC2C(=O)NC(=O)N2CCCC)n1Cc1ccc(-c2ccccc2-c2nnn[nH]2)cc1 (stereo not drawn) [Example 95, 1-Butyl-5-[[2-butyl-3-[[2'-(1H-tetrazol-5-yl)[1,1'-biphenyl]-4yl]methyl]-3H-imidazol-4-yl]methyl]-2,4-imidazolidinedione] | 2.67 | –
11 | CCCCc1nc(Br)c(/C=C2/C(=O)NC(=O)N2CCCC)n1Cc1ccc(-c2ccccc2C(=O)OC)cc1 [Example 97a, Methyl Z-4'-[[4-bromo-2-butyl-5-[(3-butyl-2,5-dioxo-4-imidazolidinylidene)methyl]-1H-imidazol-1-yl]methyl][1,1'-biphenyl]-2-carboxylate] | 700 | –
12 | CCCCc1ncc(/C=C2/C(=O)N(CCCC)C(=O)N2CCc2ccsc2)n1Cc1ccc(C(=O)OC)cc1 [Example 80, Methyl Z-4-[[2-butyl-5-[[1-butyl-2,5-dioxo-3-[2-(3-thienyl)ethyl]-4-imidazolidinylidene]methyl]-1H-imidazol-1-yl]methyl]benzoate monohydrochloride] | 14.6 | –
13 | CCCCc1ncc(/C=C2\NC(=O)N(CCCC)C2=O)n1Cc1ccc(C2(C(=O)OC)CCCC2)cc1 [Example 83, Methyl Z-1-[4-[[2-butyl-5-[(1-butyl-2,5-dioxo-4-imidazolidinylidene)methyl]-1H-imidazol-1-yl]methyl]phenyl]cyclopentanecarboxylate] | > 1000 | –
14 | CCCCc1ncc(/C=C2/C(=O)N(CCCC)C(=O)N2Cc2cc(C)on2)n1Cc1ccc(C(=O)OC)cc1 [Example 108, Methyl Z-4-[[2-butyl-5-[[1-butyl-3-[(5-methyl-3-isoxazolyl)methyl]-2,5-dioxo-4-imidazolidinylidene]methyl]-1H-imidazol-1-yl]methyl]benzoate] | 8.47 | –
15 | CCCCc1ncc(/C=C2/C(=O)N(CCCC)C(=O)N2CCCC)n1Cc1ccc(C(=O)OC)cc1 [Example 22, Methyl Z-4-[[-2-butyl-5-[(1,3-dibutyl-2,5-dioxo-4-imidazolidinylidene)methyl]-1H -imidazol-1-yl]methyl]benzoate monohydrochloride] | 1.67 | –
16 | CCCCc1ncc(/C=C2\NC(=O)N(CCCC(F)(F)F)C2=O)n1Cc1ccc(C(=O)OC)cc1 [Example 107, Methyl Z-4-[[2-butyl-5-[[2,5-dioxo-4,4,4,-(trifluorobutyl)-4-imidazolidinylidene]methyl]-1H-imidazol-1-yl]methyl]benzoate] | 1450 | –
17 | CCCCc1ncc(/C=C2/C(=O)N(CCCC)C(=O)N2CCCC(F)(F)F)n1Cc1ccc(C(=O)OC)cc1 [Example 112, Methyl Z-4-[[2-butyl-5-[[1-butyl-2,5-dioxo-3-(4,4,4-trifluorobutyl)-4-imidazolidinylidene]methyl]-1H-imidazol-1-yl]methyl]benzoate dihydrochloride] | 6.44 | –
18 | CCCCc1ncc(/C=C2/C(=O)NC(=O)N2CCCC)n1Cc1ccc(-c2ccccc2C(=O)OC)cc1 [Example 96a] | 15.9 | –
19 | CCCCc1ncc(/C=C2/C(=O)NC(=O)N2C)n1Cc1ccc(-c2ccccc2-c2nnn[nH]2)cc1 [Example 93, Z-5-[[2-butyl-3-[[2'-(1H-tetrazol-5-yl)[1,1 '-biphenyl]-4-yl]methyl]-3H-imidazol-4-yl]methylene]1-methyl-2,4-imidazolidinedione] | 5.51 | –
20 | CCCCc1ncc(CC2C(=O)NC(=O)N2CCCC)n1Cc1ccc(C(=O)O)cc1 (stereo not drawn) [Example 65, 4-[[2-Butyl-5-[(3-butyl-2,5-dioxo-4-imidazolidinyl)methyl]-1H-imidazol-1-yl]methyl]benzoic acid] | 200 | –
21 | CCCCc1ncc(/C=C(/C(=O)O)N(CCCC)C(=O)NCOC)n1Cc1ccc(C(=O)OC)cc1 [Example 98] | 377 | –
22 | CCCCc1ncc(/C=C2/C(=O)N(CCCC)C(=O)N2Cc2ccccc2)n1Cc1ccc(C(=O)OC)cc1 [Example 36, Methyl Z-4-[[2-butyl-5-[[1-butyl-2,5-dioxo-3-(phenylmethyl)-4-imidazolidinylidene]methyl]-1H-imidazol-1-yl]methyl]benzoate monohydrochloride] | 12.4 | –
